Results reported in patent US8536222B2, “Addition compounds of guanidinoacetic acid” (AlzChem AG, priority 2005, dated 2013).

Legend:
fattened chicken = experiment: feed for fattened chicken, 42 day fattening period; format: in vivo; conditions: 0.2% by weight in air-dried feed
Method: • 2.1 A formulation consisting of 5000 mg guanidinoacetic acid malate and 5000 mg inulin was introduced into a typical formulation of feed pellets as a feed supplement for horses. • 2.2 A formulation consisting of 7000 mg guanidinoacetic acid lactate, 750 mg carnitine tartrate, 100 mg sucrose stearate, 160 mg talcum and 1090 mg fructose was introduced into the basic bulk for dog biscuits. • 2.3 The following formulation was introduced homogenously as a master batch into a commercially canned cat food mixture: 3000 mg guanidinoacetic acid citrate, 3000 mg creatine, 40 mg magnesium stearate, 25 mg carboxymethyl-cellulose and […] lactose. • 2.4 Feed for fattened chicken
In addition the consumption of feed decreased by about 6% compared to previous feeding methods.

solubility in water = format: physicochemical; conditions: water at 20° C.
[1] = system: creatine content in muscles; conditions: rats, diets containing about 0.36 g/kg; cited from earlier work
[2] = 1 g in water at 15° C.; cited from earlier work

SMILES: N=C(N)NCC(=O)O.O=C(O)CCCCC1CCSS1 (stereo not shown) [guanidinoacetic acid lipoate]
- decrease of consumption of feed compared to previous feeding methods (fattened chicken): about 6%
- increase of end weight compared to previous feeding methods without guanidinoacetic acid (fattened chicken): 5%
- meat quality (fattened chicken): improved quality
- nature of the increase in weight (fattened chicken): solely by a meat increase

SMILES: N=C(N)NCC(=O)O [guanidinoacetic acid]
- dissolves in water (solubility in water): very poorly
- increase of creatine content in muscles compared to the comparison group [1]: 39%
- solubility in water (ml water needed for 1 g) [2]: 278 mL
